This is an account of results in patent publication US20190105260A1, “COMPOSITIONS AND METHODS TO PROMOTE WOUND HEALING” (The Regents of the University of California, priority 2016, published 2019).

Test [1] concerns CFSE-labeled CD4+CD25- effector T cells stimulated with CD11c+ dendritic cells. Put plainly: Mixed lymphocyte reaction. Format: cell-based, mouse. As to conditions: 1 μM fluoxetine, 10 μM serotonin, 3,000 AMSC or 1,500 BMSC added to co-cultures. The procedure: Panel A: In a mixed lymphocyte reaction, 250,000 Carboxyfluorescein succinimidyl ester (CFSE)-labeled CD4+CD25-effector T cells were cultured with 100,000 CD11c+ dendritic cells as antigen. […] Proliferation was measured based on CFSE dilution. […] P values were derived using a 2-tailed t-test.
Mixed lymphocyte reactions were performed as described. Briefly, allogenic effector B6 CF SE-labeled T cells were incubated in a 96-well plate (250,000/well) with CD11c+ Bal/b APC (100,000/well) that were purified from bulk splenocytes on anti-CD11c-coupled Milteny microbeads. […] Proliferation was measured based on CFSE dilution.

For test [2], the system named is wound beds of Db/Db female mice. Put plainly: Immunohistochemistry of wound beds (Gr-1, F4/80, CD31). Format: in vivo, mouse. The following applies: topical treatment, day 10. The procedure:
13 week-old Db/Db female mice underwent full-thickness excisional biopsies with 8 mm punch biopsies. Wounds were splinted to prevent contraction. At day 10, animals were sacrificed and wounds were harvested to assess re-epithelialization. Representative histology sections for each group were chosen. Following euthanasia of animals, wounds were excised, biopsied and bisected. Wound tissue was fixed in paraformaldehyde for 12-16 hours and then paraffin embedded. Serial […] sections were obtained from the center of the wound and the section with the largest wound bed (as defined by distance between subcutaneous fat tissue—indicated by yellow arrows in figure). Images were taken using 10× objective on a Keyance microscope. Sections were stained with antibody to Gr-1 (A), CD31 (B) or F4/80 (C) to assess neutrophil, endothelial cell or macrophage numbers, respectively, in the wound beds. Wound bed area was outlined in Spectrum software (demarcated by yellow arrows in this figure), which then calculated the number of positive cells. Data is presented as positive cells/mm^2. P values were derived using a 1-tailed t-test. *, p<0.05; **, p<0.01. N=5/group.
Following euthanasia, wound tissue was harvested and processed as described above. Antibodies: F4/80 (Serotec, now BioRad MCA497A488, clone CI:A3-1, 1:100 dilution); GR-1 (Biolegend, catalog number 108402, clone RB6-8C5, 1:200 dilution); CD31 (Santa Cruz, catalog number sc1506, clone M20, 1:1800 dilution). Wound beds were analyzed in Spectrum software (UC Davis). Wound beds were outlined based on subcutaneous fat presence and positive cells were calculated as #/mm^2 of wound bed.

Test [3] relates to Neonatal Human Keratinocytes (NHKs). In words: Scratch wound assay. Format: cell-based. The procedure: FIGS. 2A-C illustrate that serotonin (5-HT) increases keratinocyte migratory speed and re-epithelialization in a scratch wound ex vivo model, likely through the ERK-STAT3-NFkB pathway.
Neonatal Human Keratinocytes (NHKs) were either non-treated (Control) or treated with 5-HT (1 μM) and FLX (0.01 μM, 0.1 μM, 1 μM) and/or 5HTR1A blocker (100 nM NAN190) and/or 5HTR2A antagonist (1 μM Ketanserin or KET). NHKs from at least 3 different donors were plated at fully confluent density and treated with Mitomycin to prevent proliferation. P-200 tips were used to induce a scratch wound in the middle of each well and time-lapse images were recorded every 30 minutes for 6 hours and % healed were calculated as previously described. Data represented as Mean±SEM. Student t-tests were used for statistical analysis. *, p<0.05; **, p<0.01; ***, p<0.001.
NHKs were isolated and cultured from human foreskin as previously reported. […]
NHKs from 3 different donors were plated on collagen-coated 12-well plates at fully confluent density and treated with Mitomycin C to prevent proliferation. P-200 tips were used to induce a scratch wound in the middle of each well and time-lapse images were recorded every 30 minutes for 6 hours and % healed were calculated as following: % Healed=([(SA)]_(t=0)−[(SA)]_(t=6))/[(SA)]_(t=0) which SA represents surface area of the scratch wound gap at 0-hour (t=0) or 6-hour time point. […]

Take `CNCCC(Oc1ccc(C(F)(F)F)cc1)c1ccccc1` (stereo not shown) [fluoxetine]: in test [1], the “T cell proliferation (CFSE dilution)” value is on record as “significantly inhibit”. In test [2], the “angiogenesis (CD31+ endothelial cells) in wound beds vs vehicle” value was “significantly increased”, the “macrophage (F4/80+ cells) numbers in wound beds vs vehicle” value is recorded as “significantly increased” and the “neutrophils (Gr-1+ cells) in wound beds vs vehicle” value is reported as “significantly fewer”. Also, the “migratory speed of human keratinocytes” value in test [3] (fluoxetine (0.01-1 μM) in the presence of serotonin (1 μM), 6 hours) was “significantly increased”.

Turning to `NCCc1c[nH]c2ccc(O)cc12` [serotonin], the “T cell proliferation (CFSE dilution)” value in test [1] is given as “significantly inhibit”. In test [2], the “angiogenesis (CD31+ endothelial cells) in wound beds vs vehicle” value is recorded as “increasing”, the “macrophage (F4/80+ cells) numbers in wound beds vs vehicle” value is recorded as “increasing” and the “neutrophils (Gr-1+ cells) in wound beds vs vehicle” value is “significantly fewer”. Besides, in test [3] (primary keratinocytes from 3 donors, 6-hour time point, mitomycin-treated), the migration of keratinocytes result is recorded as “enhance migration of keratinocytes in a dose-dependent manner”.
